Measurements as given in patent US12054500B2, “Arginase inhibitors” (ARCUS BIOSCIENCES, INC., priority 2018, dated 2024).

Each molecule was assayed against T1, recombinant human ARG1 (Homo sapiens, UniProt P05089) (assay: Arginase coupled enzymatic assay using recombinant human ARG1). Settings: 2 nM ARG1, 0.8 mM L-Arginine, 10 mM sodium phosphate pH 7.4, 37° C.; read-out: Potency: Arginase 1 inhibition IC50.
T1 sequence (P05089 1-322): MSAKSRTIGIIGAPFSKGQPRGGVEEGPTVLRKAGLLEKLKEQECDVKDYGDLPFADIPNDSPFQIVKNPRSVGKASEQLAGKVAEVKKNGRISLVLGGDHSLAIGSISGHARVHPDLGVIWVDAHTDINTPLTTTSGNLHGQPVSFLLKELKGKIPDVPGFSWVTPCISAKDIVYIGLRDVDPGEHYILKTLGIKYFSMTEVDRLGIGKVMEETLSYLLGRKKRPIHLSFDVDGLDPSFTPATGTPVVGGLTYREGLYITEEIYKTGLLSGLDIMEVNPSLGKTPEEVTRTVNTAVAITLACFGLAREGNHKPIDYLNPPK
Type: biochemical
Procedure: Measurement of Compound Potency by Arginase Coupled Enzymatic Assay Using Recombinant Human ARG1 and ARG2
Purified recombinant human ARG1 and ARG2 were prepared in 50 mM Bicine, pH 8.5, 100 μM MnCl2, 20% glycerol and 1 mM DTT at a final stock concentration of 14.4 μM and 7.56 μM respectively. 2.5 nM of either ARG1 or ARG2 were incubated with varying concentrations of compounds in 10 mM sodium phosphate, pH 7.4, 0.1 mM MnCl2 and 2.5% DMSO in a total volume of 40 μl in a 384-well microplate (Corning™ #3640) at 37° C. for 1 h. The arginase enzymatic reaction was initiated by addition of 10 μl of 4 mM L-Arginine pre-incubated in 10 mM sodium phosphate, pH 7.4, and 0.1 mM MnCl2 at 37° C. into the enzyme and compound mixture, giving the final reaction conditions: 2 nM of ARG1 or ARG2 and 0.8 mM of L-Arginine in 10 mM sodium phosphate, pH 7.4, 0.1 mM MnCl2 and 2% DMSO with varying concentrations of compounds. Following 2 h incubation at 37° C., the arginase enzymatic reaction was stopped by transfer of 10 μl of reaction into 10 μl of detection mix (204 μM Amino-2-Borono-6-Hexanoic Acid, 0.25 μl Arginase Enzyme mix, 0.25 μl Arginase Developer, 0.25 μl Arginase Converter Enzyme in Arginase Assay Buffer from Arginase Activity Colorimetric Assay Kit, BioVision Inc. #K755-100) in a transparent 384-well microplate (Greiner #781801). The plate was immediately put into a plate reader (Synergy™ Neo2 Multi-Mode Microplate Reader) to monitor absorption at 570 nm at 37° C. Absorption values at 12-20 min were used to calculate compound potency. The value of the DMSO blank (MIN inhibition=100% activity) was used as a negative control. The positive control was established by adding 8 μl of enzyme and DMSO mix into 10 μl of detection mix followed by addition of 2 μl of L-Arginine (MAX inhibition=0% activity). To calculate the percent activity, Equation 1 was used. Abs570nm is the value at a given compound concentration:
A counter-screen was performed to identify any inhibition of the coupling enzymes by the test compounds. 10 μl of 0.26 mM of urea with varying concentrations of compounds in 10 mM sodium phosphate, pH 7.4, 0.1 mM MnCl2 and 2% DMSO were added into 10 μl of detection mix in place of the arginase enzymatic reaction mix. Absorption was monitored at 570 nm as described above. The values of a no substrate blank (without urea; MAX inhibition=0% activity) and a DMSO blank (MIN inhibition=100% activity) were used as positive and negative controls respectively. […] Inactivity in the counter-screen was used to confirm that results accurately reflected IC50 values for ARG1 and ARG2.
NCCN1C[C@@H]2C[C@@](N)(C(=O)O)[C@@H](CCCB(O)O)[C@@H]2C1 gave an IC50 of 100 to 1000 nM. N[C@@]1(C(=O)O)C[C@H]2CNC[C@H]2[C@@H]1CCCB(O)O gave an IC50 of under 100 nM. C[C@H](N)C(=O)N1C[C@@H]2C[C@@](N)(C(=O)O)[C@@H](CCCB(O)O)[C@@H]2C1 was tested, and the IC50 was 100 to 1000 nM. Work on C[C@H](N)C(=O)N1C[C@@H]2C[C@](N)(C(=O)O)[C@H](CCCB(O)O)[C@@H]2C1 yielded an IC50 of 100 to 1000 nM. For N[C@]1(C(=O)O)C[C@H]2CN(C(=O)[C@@H]3CCCN3)C[C@H]2[C@H]1CCCB(O)O, the IC50 was 100 to 1000 nM. With N[C@@]1(C(=O)O)C[C@H]2CN(C3COC3)C[C@H]2[C@@H]1CCCB(O)O the IC50 was 100 to 1000 nM. In the case of N[C@@]1(C(=O)O)C[C@H]2CN(C(CO)CCl)C[C@H]2[C@@H]1CCCB(O)O (some centres unmarked), the IC50 is reported as under 100 nM. CC1(C)[C@H]2C[C@@H]3OB(CCC[C@H]4[C@@H]5CNC[C@@H]5C[C@@]4(N)C(=O)O)O[C@]3(C)[C@@H]1C2 showed an IC50 of 100 to 1000 nM.
